In assay [1] the target is ERK1 (Homo sapiens, UniProt P27361). Put plainly: Kinase panel: ERK1. It counts as biochemical. The following applies: 10 μM EP009. On the procedure: (§1) Achieving JAK3 selectivity remains a significant challenge in the development of new small molecules for the treatment of cancer and immune-derived diseases. As such, the inventors employed cell-based screening assays of small-molecule libraries based upon the chemical scaffold of the established JAK3 inhibitor NC1153 (Stepkowski et al., J Immunol. (2005), 175(7):4236-4246) EP009 (FIG. 2A) was selected as a lead compound due to improved intrinsic stability (>95% purity in various solvents at 37° C. for 24 hours; FIG. 3) and high-degree of JAK3 selectivity. To test JAK3 versus JAK2 specificity of EP009, the IL-2/JAK3-dependent Kit225, and IL-3/JAK2-dependent BaF/3 cell lines were used. Kit225 and BaF/3 cells growing in the presence of IL-2 or IL-3, respectively, were treated with ascending concentrations of EP009 for 12 hours and cellular JAK3 and JAK2 tyrosine phosphorylation levels detected by Western blot analysis (FIGS. 2B and 2C). Following densitometric analysis, EP009 was determined to dose-dependently reduce IL-2-mediated JAK3 tyrosine phosphorylation with a cellular 50% inhibitory concentration (IC50) between 10 and 20 μM (FIG. 2B). […] To globally evaluate specificity, the inhibitory activity of EP009 was measured against a panel of protein kinases distributed throughout the kinome using the scanEDGE profiling service (KINOMEscan). […]
ERK1, sequence (P27361 whole entry): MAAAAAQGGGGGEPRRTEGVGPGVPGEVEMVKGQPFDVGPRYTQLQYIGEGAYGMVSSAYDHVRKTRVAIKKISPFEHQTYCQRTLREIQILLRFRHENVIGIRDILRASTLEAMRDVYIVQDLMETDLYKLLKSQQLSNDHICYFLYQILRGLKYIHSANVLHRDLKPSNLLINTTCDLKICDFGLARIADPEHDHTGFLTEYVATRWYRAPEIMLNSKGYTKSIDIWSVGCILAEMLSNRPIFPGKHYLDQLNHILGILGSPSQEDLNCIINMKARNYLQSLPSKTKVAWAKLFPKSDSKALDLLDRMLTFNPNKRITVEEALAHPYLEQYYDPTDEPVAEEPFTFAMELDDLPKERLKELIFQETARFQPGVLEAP

Assay [2] addresses BRAF (Homo sapiens, UniProt P15056). The assay is described as follows: Kinase panel: BRAF. The format is biochemical. The conditions noted are these: 10 μM EP009. As for the experimental part:
as §1

In assay [3] the target is CSNK1G2 (Homo sapiens, UniProt P78368). The assay is described as follows: Kinase panel: CSNK1G2. The conditions noted are these: 10 μM EP009. It counts as biochemical. On the procedure:
as §1

In assay [4] the target is PIM3 (Homo sapiens, UniProt Q86V86). Put plainly: Kinase panel: PIM3. The conditions noted are these: 10 μM EP009. It counts as biochemical. As for the experimental part: as §1
Assay [5] deals with H2228. The assay is described as follows: H2228 cell viability (MTS). It counts as cell-based, human. The conditions noted are these: 0-10 μM, 72 hours. As for the experimental part: FIGS. 7A-7C. EP009 reduces ALCL cell viability through induction of caspase 3 mediated apoptosis. (A) SUP-M2, SU-DHL-1 or H2228 cells were cultured with increasing amounts of EP009 (0-10 μM) for 72 hours and cell viability measured with the MTS tetrazolium salt assay. Values represent mean absorbance (OD490-OD650 nm) normalized to vehicle (PBS) treated control cells, while error bars represent the standard deviation (n=3). (B) SU-DHL-1 cells were treated with vehicle (PBS) or increasing amounts of EP009 (0-50 μM) for 24 hours. Cells were then lysed, clarified, and subjected to Luminex multiplex analysis to detect activated caspase 3 and (C) cleaved PARP. Values represent MFI normalized to corresponding GAPDH MFI, while error bars represent the standard deviation (n=2). Representative data from three independent experiments are shown. Statistical significance was determined using Student's t-test. (*, p<0.05).
Cell viability was assessed with 3-(4,5-dimethylthiazol-2-yl)-5-(3-carboxymethoxyphenyl)-2-(4-sulfophenyl)-2H-tetrazolium salt (MTS) reagent (Promega) in triplicates according to the manufacturer's instructions. Three independent experiments were performed. The error bars represent standard deviation.

For assay [6], the target named is T1, JAK2 (Mus musculus, UniProt Q62120).
T1 construct: cellular JAK3 and JAK2 tyrosine phosphorylation levels detected by Western blot analysis; endogenous in cells; host or cells: Ba/F3 (BaF/3)
T1 sequence (Q62120 whole entry): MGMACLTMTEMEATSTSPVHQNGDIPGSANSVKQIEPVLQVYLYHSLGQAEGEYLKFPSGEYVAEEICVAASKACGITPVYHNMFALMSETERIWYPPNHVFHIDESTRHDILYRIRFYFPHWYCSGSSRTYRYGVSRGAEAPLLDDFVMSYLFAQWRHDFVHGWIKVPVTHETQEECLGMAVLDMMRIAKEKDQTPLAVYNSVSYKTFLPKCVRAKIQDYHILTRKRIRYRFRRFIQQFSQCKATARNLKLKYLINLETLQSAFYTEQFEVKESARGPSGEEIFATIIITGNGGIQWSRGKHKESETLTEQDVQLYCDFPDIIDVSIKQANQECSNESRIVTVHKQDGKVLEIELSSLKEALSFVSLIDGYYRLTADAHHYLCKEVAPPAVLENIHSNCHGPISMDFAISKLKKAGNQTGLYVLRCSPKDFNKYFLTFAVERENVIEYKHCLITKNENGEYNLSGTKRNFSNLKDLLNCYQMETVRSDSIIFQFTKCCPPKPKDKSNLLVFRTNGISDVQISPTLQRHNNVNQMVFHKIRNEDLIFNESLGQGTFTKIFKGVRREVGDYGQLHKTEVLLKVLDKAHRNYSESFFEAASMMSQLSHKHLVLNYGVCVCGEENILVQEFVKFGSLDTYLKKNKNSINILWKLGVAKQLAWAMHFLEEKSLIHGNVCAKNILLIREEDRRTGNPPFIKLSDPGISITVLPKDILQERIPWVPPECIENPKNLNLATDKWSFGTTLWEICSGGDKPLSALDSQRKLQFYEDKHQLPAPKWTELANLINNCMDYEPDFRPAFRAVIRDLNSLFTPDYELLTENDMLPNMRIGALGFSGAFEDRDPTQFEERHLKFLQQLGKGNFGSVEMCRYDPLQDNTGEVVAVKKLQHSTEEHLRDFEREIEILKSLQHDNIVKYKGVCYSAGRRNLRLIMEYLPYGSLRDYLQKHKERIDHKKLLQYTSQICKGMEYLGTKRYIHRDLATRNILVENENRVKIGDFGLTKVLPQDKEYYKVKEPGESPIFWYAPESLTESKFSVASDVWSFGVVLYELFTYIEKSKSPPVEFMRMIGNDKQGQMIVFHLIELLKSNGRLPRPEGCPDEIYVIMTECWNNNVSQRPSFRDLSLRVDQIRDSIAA
Put plainly: IL-3-induced JAK2 tyrosine phosphorylation in BaF/3 cells (IP/Western blot). The format is cell-based, murine. The conditions noted are these: 12 hours, concentrations up to 50 μM. As for the experimental part:
FIGS. 2A-2F. Selective inhibition of JAK3 by EP009 results in loss of JAK3-dependent tumor cell line viability with no detectable off-target effects in key cell types. (A) Chemical structure of EP009 (M.W. 224.34). (B) Kit225 or (C) BaF/3 cells cultured in the presence of IL-2 or IL-3, respectively, were treated with vehicle (PBS; lane a) or increasing amounts of EP009 (0-50 μM; lanes b-h) for 12 hours. Cells were then lysed, clarified, and immunoprecipitated (IP) with anti-JAK3 (α-JAK3) or anti-JAK2 (α-JAK2), and subjected to Western blot (WB) analysis with anti-phosphotyrosine (α-pY). Blots were stripped and reprobed with corresponding antibody to verify equivalent protein loading. […] (E) Kit225 or BaF/3 cells were cultured with increasing amounts of EP009 (0-10 μM) for 72 hours and cell viability measured with the MTS tetrazolium salt assay. Values represent mean absorbance (OD490-OD650 nm) normalized to vehicle (PBS) treated control cells, while error bars represent the standard deviation (n=3). (F) HEK293, HEPG2, or naïve primary human PBMCs were cultured with increasing amounts of EP009 (0-10 μM) for 72 hours and cell viability measured with the MTS tetrazolium salt assay. Values represent mean absorbance (OD490-OD650 nm) normalized to vehicle (PBS) treated control cells, while error bars represent the standard deviation (n=3). […]

One molecule from patent publication US9371265B2, “Compositions and methods related to inhibitors of JAK kinase” (EP PHARMA, INC., priority 2012, dated 2016) can be followed below.

Molecules are shown by their SMILES.

BRAF, sequence (P15056 whole entry): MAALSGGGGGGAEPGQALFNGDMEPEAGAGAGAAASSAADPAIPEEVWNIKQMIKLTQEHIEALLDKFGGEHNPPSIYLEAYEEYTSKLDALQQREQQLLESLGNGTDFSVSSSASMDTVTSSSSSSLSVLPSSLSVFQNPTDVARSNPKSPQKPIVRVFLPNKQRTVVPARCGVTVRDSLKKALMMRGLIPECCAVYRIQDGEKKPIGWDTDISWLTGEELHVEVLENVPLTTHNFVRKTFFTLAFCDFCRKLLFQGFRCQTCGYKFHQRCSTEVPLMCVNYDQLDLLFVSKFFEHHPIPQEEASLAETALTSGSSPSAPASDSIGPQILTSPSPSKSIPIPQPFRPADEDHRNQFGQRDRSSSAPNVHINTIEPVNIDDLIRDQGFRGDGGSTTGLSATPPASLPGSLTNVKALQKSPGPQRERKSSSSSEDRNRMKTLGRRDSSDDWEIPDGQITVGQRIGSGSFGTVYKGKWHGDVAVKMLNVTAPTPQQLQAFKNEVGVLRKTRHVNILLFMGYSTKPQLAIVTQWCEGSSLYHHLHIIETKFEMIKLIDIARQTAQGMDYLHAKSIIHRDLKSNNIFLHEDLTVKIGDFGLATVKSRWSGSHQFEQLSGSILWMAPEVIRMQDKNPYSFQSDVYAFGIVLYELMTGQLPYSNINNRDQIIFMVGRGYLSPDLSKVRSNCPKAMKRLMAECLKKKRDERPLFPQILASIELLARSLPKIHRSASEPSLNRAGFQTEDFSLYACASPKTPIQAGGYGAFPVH
CSNK1G2, sequence (P78368 whole entry): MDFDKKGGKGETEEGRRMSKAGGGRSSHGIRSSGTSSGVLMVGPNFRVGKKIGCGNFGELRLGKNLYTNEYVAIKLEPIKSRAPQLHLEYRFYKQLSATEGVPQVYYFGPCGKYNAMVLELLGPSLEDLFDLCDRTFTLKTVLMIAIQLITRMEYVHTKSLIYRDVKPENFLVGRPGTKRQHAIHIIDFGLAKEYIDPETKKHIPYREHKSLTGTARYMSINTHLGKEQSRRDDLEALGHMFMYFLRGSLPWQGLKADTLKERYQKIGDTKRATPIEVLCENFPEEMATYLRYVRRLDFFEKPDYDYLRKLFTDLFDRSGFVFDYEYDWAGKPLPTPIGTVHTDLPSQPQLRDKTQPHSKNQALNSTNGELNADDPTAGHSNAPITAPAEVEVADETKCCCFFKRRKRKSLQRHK

`C=C1CCCCCCCCCC(CO)C1=O` (stereo not drawn) [EP009, 2-(Hydroxymethyl)-12-methylenecyclododecanone]: the “Kinase Activity (% of Control)” value in assay [1] was 100 % of Control; in assay [2] it was 72 % of Control; in assay [3], 100 % of Control; in assay [4], 100 % of Control. Further, in assay [5], the “effect on H2228 cell viability” value is recorded as “no effect”. In assay [6], the “effect on IL-3-induced JAK2 tyrosine phosphorylation” value is reported as “no detectable effect”.
